Laboratory results as given in patent US20250354151A1, “INHIBITORY AGENT FOR MYOCARDIAL CELL DEATH, AND PROPHYLACTIC OR THERAPEUTIC AGENT FOR MYOCARDIAL DISORDERS OR HEART FAILURE” (KYOTO PREFECTURAL PUBLIC UNIVERSITY CORPORATION, priority 2022, published 2025).

Key:
[1] = test system: iPS cell-derived cardiomyocytes; assay: Viability of cardiomyocytes after treatment with the TAOK1 inhibitor and doxorubicin (PrestoBlue); type: cell-based, human; details: C43 final concentration 10 nM, added simultaneously with doxorubicin; measured 3 days later; FIG. 4
Procedure: The iPS cell-derived cardiomyocytes were seeded on the 96-well plate coated with the growth factor reduced matrigel, after 5 days or more from the seeding, the TAOK1 inhibitor C43 (MedChemExpress) and the doxorubicin were simultaneously added, and 3 days later, the cell viability was measured with SpectraMaxM2e using the PrestoBlue reagent.

[2] = test system: iPS cell-derived cardiomyocytes; assay: Oxygen consumption measurement (Seahorse XF Cell Mito Stress Test); type: cell-based, human; details: doxorubicin 1 μM for 3 hours vs 0 μM; FIG. 7
Procedure: TAOK1 knock-out cells were obtained from the iPS cell-derived cardiomyocytes in a similar manner as in Test Example 2-1. The obtained cells were treated with the doxorubicin at 0 μM or 1 μM for 3 hours, and oxygen consumption was measured using a Seahorse XFe 96 Flux Analyzer (Agilent) and a Seahorse XF Cell Mito Stress Test Kit (Agilent).

oxygen consumption of the cardiomyocytes [2] | SMILES | cell viability (myocardial cell death caused by the doxorubicin) [1]
 | O=C(CNC(=O)c1ccc(-c2ccccc2)cc1)NC1CCCc2ccccc21 (centres unmarked) [Entry C43, N-[2-oxo-2-(1,2,3,4-tetrahydronaphthalen-1-ylamino)ethyl]biphenyl 4-carboxamide] | inhibit the myocardial cell death caused by the doxorubicin
significantly reduced | COc1cccc2c1C(=O)c1c(O)c3c(c(O)c1C2=O)C[C@@](O)(C(=O)CO)C[C@@H]3O[C@H]1C[C@H](N)[C@H](O)[C@H](C)O1 [doxorubicin] | 
